Reference: patent US12649723B2, “Carbonohydrazonoyl dicyanide compounds comprising 2 or more aryl or heteroaryl connected via linker and use thereof” (KOREA INSTITUTE OF SCIENCE AND TECHNOLOGY, priority 2020, dated 2026)

Assays:
[1] = tested on: Tau-BiFC cells; assay: Cell viability (cytotoxicity) in tau-BiFC cells, count of stained nuclei; format: cell-based; conditions: Forskolin-only group = 100% cell viability; for Cell viability (% @10 μM): compound 10 μM
Procedure: (§1) In order to select novel tau protein aggregation-inhibiting substances, tau-BiFC cell model, in which formation of tau oligomers in living cells is easily observed, was used. Tau-BiFC cells were aliquoted into a 384-well plate. On the next day, the cells were treated with each of the compounds prepared according to Examples 1 to 175 at concentrations of 1 μM, 3 μM, and 10 μM, together with Forskolin (at a treatment concentration of 30 μM), which is a compound inducing tau protein aggregation by activating tau […] PKA. After 48 hours, nuclei in the cells were stained using Hoechst (at a treatment concentration of 2 μg/mL), and BiFC fluorescence intensity was automatically measured using Operetta (PerkinElmer) to count stained nuclei in each well out of the entire well plate. The group treated only with Forskolin, which induces tau protein aggregation, was set to a reference point of a 100% tau protein-aggregated state, and the effects of the compounds were confirmed using the equation “BiFC fluorescence intensity due to compound synthesized according to embodiment of present invention/(fluorescence intensity of control group treated only with Forskolin inducing tau protein aggregation−fluorescence intensity of untreated control group)×100”. Furthermore, the degree of cytotoxicity induced by the newly synthesized compound was also measured based on the 100% cell viability of the group treated only with Forskolin as a reference, and the cytotoxicity value of each compound was calculated using the equation “(number of stained nuclei in group treated with compound/number of stained nuclei in group treated with Forskolin)×100”. Based on the treatment results, substances inhibiting intracellular tau protein aggregation were selected from a series of candidate groups showing a tau protein aggregation inhibition rate of 70% or more and cell viability of 100% at a compound treatment concentration of 10 μM or more.
(§2) In order to evaluate dose-dependent tau protein aggregation inhibition effects of the compounds selected according to Experimental Example 1 on tau protein aggregation, tau-BiFC cells were treated with the selected compounds at concentrations of 0.03 μM, […], 0.3 μM, 1 μM, 3 μM, 10 μM, and 30 μM, respectively, together with Forskolin (at a treatment concentration of 30 μM), which is a tau protein aggregation inducing substance. After 48 hours, tau protein aggregation reaction and degrees of cytotoxicity were analyzed by observing images of the cells. IC50 and toxicity of the compounds were analyzed by way of nonlinear regression analysis of prism software (Graph Pad).

[2] = target: T1, tau protein (Homo sapiens, UniProt P10636); assay: Tau-BiFC cell model: inhibition of tau protein aggregation; format: cell-based; conditions: for remaining activity at 10 µM: compound 10 μM, BiFC fluorescence, read-out: Response (% @10 μM); for IC50: Tau BiFC in cells, with Forskolin 30 μM, 48 hours
T1 construct: fused on or other part: Split fluorescent-protein halves for BiFC are fused to tau; In the published tau-BiFC line these are Venus VN173 and VC155
T1 sequence (P10636 2-441 isoform P10636-8 limits assumed): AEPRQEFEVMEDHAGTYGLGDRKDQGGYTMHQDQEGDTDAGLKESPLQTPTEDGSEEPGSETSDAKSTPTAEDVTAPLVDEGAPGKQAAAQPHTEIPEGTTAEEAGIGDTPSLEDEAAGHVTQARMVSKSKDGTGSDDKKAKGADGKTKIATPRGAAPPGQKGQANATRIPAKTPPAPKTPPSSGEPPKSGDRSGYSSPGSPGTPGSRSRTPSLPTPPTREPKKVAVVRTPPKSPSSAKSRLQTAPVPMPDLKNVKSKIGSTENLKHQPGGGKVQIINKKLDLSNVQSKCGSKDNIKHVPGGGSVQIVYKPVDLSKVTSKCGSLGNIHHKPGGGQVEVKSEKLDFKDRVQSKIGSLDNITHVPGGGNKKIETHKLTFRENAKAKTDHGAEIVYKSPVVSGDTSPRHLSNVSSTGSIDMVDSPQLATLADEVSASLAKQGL
Procedure: as §1, §2

[3] = 48 h, Forskolin-only group = 100% tau protein-aggregated state

SMILES | Cell viability (% @10 μM) [1] [%] | remaining activity at 10 µM [2, 3] [%] | IC50 [2] [nM] | Cell viability ([1]; compounds marked *: measured at 3 μM) [%] | remaining activity at 3 µM ([2]; 48 h, compounds marked *: measured at 3 μM, Forskolin-only group = 100% tau protein-aggregated state, read-out: Response) [%]
N#CC(C#N)=NNc1ccc(NC(=O)c2cnco2)nc1 [Compound 114, (6-(oxazole-5-carboxamido)pyridin-3-yl)carbonohydrazonoyl dicyanide] | 149.5 | 0 | 1500 | – | –
COc1cc(NN=C(C#N)C#N)ccc1C(=O)Nc1cncc(C)c1 [Compound 107, (3-methoxy-4-(5-methylpyridin-3-ylcarbamoyl)phenyl)carbonohydrazonoyl dicyanide] | 137.9 | 0 | 600 | – | –
CN(N=C(C#N)C#N)c1ccc(Oc2ccccc2)c(C(F)(F)F)c1 [Compound 78, methyl(4-phenoxy-3-(trifluoromethyl)phenyl)carbonohydrazonoyl dicyanide] | 74 | 69.6 | – | – | –
Cc1cnc(C(=O)Nc2ccc(NN=C(C#N)C#N)cc2C)cn1 [Compound 8, (3-methyl-4-(5-methylpyrazine-2-carboxamido)phenyl)carbonohydrazonoyl dicyanide] | 88 | 0 | 40 | – | –
Cc1ccc(COc2ccc(NN=C(C#N)C#N)cc2)cc1 [Compound 119, (4-(4-methylbenzyloxy)phenyl)carbonohydrazonoyl dicyanide] | 112.5 | 38.9 | 3550 | – | –
N#CC(C#N)=NNc1ccc(OCc2cc3ccccc3s2)cc1 [Compound 130, (4-(benzo[b]thiophen-2-ylmethoxy)phenyl)carbonohydrazonoyl dicyanide] | 113 | 0 | – | – | –
COc1cc(NN=C(C#N)C#N)ccc1OCc1ncccn1 [Compound 161, (3-methoxy-4-(pyrimidin-2-ylmethoxy)phenyl)carbonohydrazonoyl dicyanide] | – | – | 109 | 119 | -17
COc1ccc(CCOc2ccc(NN=C(C#N)C#N)cn2)cc1 [Compound 102, (6-(4-methoxyphenethoxy)pyridin-3-yl)carbonohydrazonoyl dicyanide] | 54.5 | 0 | 960 | – | –
N#CC(C#N)=NNc1ccc(NS(=O)(=O)c2ccccc2)nc1 [Compound 58, (6-(phenylsulfonamido)pyridin-3-yl)carbonohydrazonoyl dicyanide] | 113.5 | 51.4 | – | – | –
N#CC(C#N)=NNc1ccc(OCc2ccc(C(F)(F)F)cc2)cc1 [Compound 118, (4-(4-(trifluoromethyl)benzyloxy)phenyl)carbonohydrazonoyl dicyanide] | 82.6 | 25.7 | 5750 | – | –
COc1ccc(CCOc2ccc(NN=C(C#N)C#N)cc2)cc1 [Compound 120, (4-(4-methoxyphenethoxy)phenyl)carbonohydrazonoyl dicyanide] | 66.2 | 0 | 1450 | – | –
N#CC(C#N)=NNc1ccc(OCCc2ccc(C(F)(F)F)cc2)nc1 [Compound 103, (6-(4-(trifluoromethyl)phenethoxy)pyridin-3-yl)carbonohydrazonoyl dicyanide] | 37.9 | 0 | 2350 | – | –
COc1ccc(CCOc2ccc(NN=C(C#N)C#N)cc2C(F)(F)F)cc1 [Compound 134, (4-(4-methoxyphenethoxy)-3-(trifluoromethyl)phenyl)carbonohydrazonoyl dicyanide] | 38.1 | 0 | – | – | –
COc1ccc(NC(=O)c2ccc(NN=C(C#N)C#N)cc2)cc1 [Compound 44, (4-(4-methoxyphenylcarbamoyl)phenyl)carbonohydrazonoyl dicyanide] | 70.4 | 0 | – | – | –
N#CC(C#N)=NNc1ccc(NC(=O)c2ccccc2)nc1 [Compound 15, (6-benzamidopyridin-3-yl)carbonohydrazonoyl dicyanide] | 79.9 | 0 | 90 | – | –
Cc1ccc(NC(=O)c2ccc(NN=C(C#N)C#N)cc2C)cn1 [Compound 53, (3-methyl-4-(6-methylpyridin-3-ylcarbamoyl)phenyl)carbonohydrazonoyl dicyanide] | 116.1 | 22.9 | – | – | –
N#CC(C#N)=NNc1ccc(NS(=O)(=O)c2cccs2)nc1 [Compound 62, (6-(thiophene-2-sulfonamido)pyridin-3-yl)carbonohydrazonoyl dicyanide] | 116.5 | 87.3 | – | – | –
Cc1cc(NN=C(C#N)C#N)ccc1Oc1cccnc1 [Compound 74, (3-methyl-4-(pyridin-3-yloxy)phenyl)carbonohydrazonoyl dicyanide] | 92.7 | 0 | 440 | – | –
N#CC(C#N)=NNc1ccc(Oc2cccc(C#N)c2)cc1 [Compound 88, (4-(3-cyanophenoxy)phenyl)carbonohydrazonoyl dicyanide] | 44.4 | 0 | 3060 | – | –
N#CC(C#N)=NNc1ccc(OCCc2ccccc2)nc1 [Compound 100, (6-phenethoxypyridin-3-yl)carbonohydrazonoyl dicyanide] | 39.4 | 0 | 780 | – | –
Cc1cnc(C(=O)Nc2ccc(NN=C(C#N)C#N)cc2Cl)cn1 [Compound 11, (3-chloro-4-(5-methylpyrazine-2-carboxamido)phenyl)carbonohydrazonoyl dicyanide] | 82.5 | 0 | 110 | – | –
Cc1cnc(NC(=O)c2ccc(NN=C(C#N)C#N)cc2C)cn1 [Compound 52, (3-methyl-4-(5-methylpyrazin-2-ylcarbamoyl)phenyl)carbonohydrazonoyl dicyanide] | 120.2 | 24 | – | – | –
N#CC(C#N)=NNc1ccc(NC(=O)c2ccccc2C(F)(F)F)nc1 [Compound 28, (6-(2-(trifluoromethyl)benzamido)pyridin-3-yl)carbonohydrazonoyl dicyanide] | 125.8 | 0 | 540 | – | –
N#CC(C#N)=NNc1ccc(Oc2ccc(C(F)(F)F)cn2)cc1 [Compound 90, (4-(5-(trifluoromethyl)pyridin-2-yloxy)phenyl)carbonohydrazonoyl dicyanide] | 43.7 | 0 | 1290 | – | –
Cc1ccc(NS(=O)(=O)c2ccc(NN=C(C#N)C#N)cc2)cn1 [Compound 65, (4-(N-(6-methylpyridin-3-yl)sulfamoyl)phenyl)carbonohydrazonoyl dicyanide] | 111.4 | 72.6 | – | – | –
N#CC(C#N)=NNc1ccc(Oc2cccnc2)c(F)c1 [Compound 72, (3-fluoro-4-(pyridin-3-yloxy)phenyl)carbonohydrazonoyl dicyanide] | 129.5 | 0 | 1990 | – | –
Cc1ccc(NC(=O)c2ccc(NN=C(C#N)C#N)c(C)c2)cn1 [Compound 55, (2-methyl-4-(6-methylpyridin-3-ylcarbamoyl)phenyl)carbonohydrazonoyl dicyanide] | 116.1 | 65.6 | – | – | –
N#CC(C#N)=NNc1ccc(Oc2cccc(F)c2)cc1 [Compound 94, (4-(3-fluorophenoxy)phenyl)carbonohydrazonoyl dicyanide] | 33.6 | 0 | 1280 | – | –
N#CC(C#N)=NNc1ccc(OCCc2ccccc2)cc1 [Compound 122, (4-phenethoxyphenyl)carbonohydrazonoyl Dicyanide] | 92.9 | 11.7 | 1860 | – | –
Cc1cnc(C(=O)Nc2ccc(NN=C(C#N)C#N)nc2)cn1 [Compound 14, (5-(5-methylpyrazine-2-carboxamido)pyridin-2-yl)carbonohydrazonoyl dicyanide] | 102 | 147 | – | – | –
